From patent US20240002343A1, “COMPOUNDS HAVING INHIBITORY EFFECT ON MITOCHONDRIAL HYPERFISSION” (KYUSHU UNIVERSITY, NATIONAL UNIVERSITY CORPORATION, priority 2020, published 2024)

Tested on: cardiomyocytes derived from neonatal rats
Assay: Inhibitory effect on mitochondrial hyperfission by hypoxic stimulation
Assay type: cell-based, rat
Conditions: 0.3 μM, 1 hour preincubation, 18 hours hypoxic environment; compared with cilnidipine positive control
Experimental: A system for evaluating quantitatively the degree of mitochondrial division in cells was constructed. Specifically, cardiomyocytes derived from neonatal rats were cultured under either normoxia (20%) or hypoxia (1%) for 16 hours. Subsequently, the cells were stained with a fluorescent dye (MitoTracker Green FM, Thermo Fisher Scientific) that selectively stains mitochondria. Then, the mitochondria were observed under a fluorescence microscope, and the mitochondrial morphology was quantitatively measured by image analysis.
FIGS. 2(a) and (b) are each a micrograph and an image explaining a method for quantitatively measuring mitochondrial morphology by image analysis. FIG. 2(a) is a representative fluorescence micrograph showing the general morphology of mitochondria. FIG. 2(b) is an image obtained by filtering the photograph in FIG. 2(a) and extracting the shape of the mitochondria. Image analysis was performed based on the image in FIG. 2(b) to quantify the lengths of mitochondrial fragments. For the quantification, in order to classify the mitochondria into vesicle-shaped, intermediate-shaped and tube-shaped, <3.5 μm is set for vesicle-shaped, 3.6 μm<length<4.2 μm is set for intermediate-shaped, and >4.2 μm is set for tube-shaped, respectively, as thresholds.
The system for evaluation constructed in Test Example 1 was used to evaluate the mitochondrial hyperfission inhibitory effects of the compounds prepared in Examples.
Specifically, at first, each compound was added to the culture medium of cardiomyocytes derived from neonatal rats at a final concentration of 0.3 μM, and the mixture was incubated for 1 hour.
Then, each cells were cultured for an additional 18 hours in a hypoxic environment. Subsequently, mitochondria were stained with MitoTracker Green FM (Thermo Fisher Scientific) or anti-pyruvate dehydrogenase antibody (Abcam) and observed under a fluorescence microscope to quantitatively measure the morphology of mitochondria. For comparison, a group involving cilnidipine as a positive control and a group involving dimethyl sulfoxide (DMSO) as a negative control were also prepared.

SMILES	mitochondrial hyperfission inhibitory effect (percentage of cells with vesicle-shaped mitochondria)
COCCOC(=O)c1c(C)nc(C)c2c(=O)n(C)c3ccccc3c12 [Compound 10a, 2-Methoxyethyl 2,4,6-trimethyl-5-oxo-5,6-dihydrobenzo[c][2,7]naphthyridine-1-carboxylate]	the same as or more effect of cilnidipine
COCCOC(=O)c1c(C)nc(C)c2c(=O)n(Cc3ccccc3)c3ccccc3c12 [Compound 10b, 2-Methoxyethyl 6-benzyl-2,4-dimethyl-5-oxo-5,6-dihydrobenzo[c][2,7]naphthyridine-1-carboxylate]	the same as or more effect of cilnidipine
COCCOC(=O)c1c(C)nc(C)c2c(=O)n(-c3cccc(C(=O)OC(C)(C)C)c3)c3ccccc3c12 [Compound 17c, 2-Methoxyethyl 6-(3-(tert-butoxycarbonyl)phenyl)-2,4-dimethyl-5-oxo-5,6-dihydrobenzo[c][2,7]naphthyridine-1-carboxylate]	the same as or more effect of cilnidipine
COCCOC(=O)c1c(C)nc(C)c(C(=O)Nc2cccc(C(=O)OC(C)(C)C)c2)c1-c1ccccc1 [Compound 24, 2-Methoxyethoxy 5-((3-(tert-butoxycarbonylcarbonyl)phenyl)carbamoyl)-2,6-dimethyl-4-phenylnicotinate]	the same as or more effect of cilnidipine
COCCOC(=O)c1c(C)nc(C)c(C(=O)Nc2cccc(C(=O)O)c2)c1-c1ccccc1 [Compound 25, 3-(5-((2-methoxyethoxy)carbonyl)-2,6-dimethyl-4-phenylnicotinamido)benzoic acid]	the same as or more effect of cilnidipine
COCCOC(=O)c1c(C)nc(C)c(C(=O)Nc2cccc(C(=O)OC)c2)c1-c1ccccc1 [Compound 26, 2-Methoxyethoxy 5-((3-(methoxycarbonyl)phenyl)carbamoyl)-2,6-dimethyl-4-phenylnicotinate]	the same as or more effect of cilnidipine
COCCOC(=O)C1=C(C)NC(C)=C(C(=O)Nc2cccc(C(=O)OCCC#N)c2)C1c1ccccc1 (centres unmarked) [Compound 30, 2-Methoxyethyl 5-((3-((2-cyanoethoxy)carbonyl)phenyl)carbamoyl)-2,6-dimethyl-4-phenyl-1,4-dihydropyridine-3-carboxylate]	the same as or more effect of cilnidipine
COCCOC(=O)C1=C(C)NC(C)=C(C(=O)Nc2cccc(C(=O)O)c2)C1c1ccccc1 (centres unmarked) [Compound 31, 3-(5-((2-methoxyethoxy)carbonyl)-2,6-dimethyl-4-phenyl-1,4-dihydropyridine-3-carboxamido)benzoic acid]	the same as or more effect of cilnidipine
